Experimental data from US20070203066A1, “Compositions and methods for inhibiting cellular proliferation” (priority 2005, published 2007).
Positions of bridges follow the written chain, without caps; N, C: chain ends. Residues, ends and D or L forms follow the SMILES beside them. Chains are numbered I, II in the order given.

Experiments:
Format in all cases: cell-based
HUVECs = conditions: 48 h
Procedure, shortened: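 HUVECs seeded at 5,000 cells/well in EBM with 2% FCS, adhered ≥12 hours, then stimulated with bFGF 10 ng/ml or VEGF 5 ng/ml plus varying peptide concentrations. After 48 hours at 37 ° C, 5% CO2, proliferation inhibition read by BrdU incorporation.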

[1] = test system: Mouse Lewis lung carcinoma (LLC) cells; assay: Proliferation assay of tumor cells (BrdU incorporation), LLC; conditions: 48 hours, read-out: Inhibitory Activity (IC50 uM) LLC
Protocol: (§1) The antiproliferative activity of selected peptides of the present invention was assessed on several tumor cell lines. Mouse Lewis lung carcinoma (LLC) cells were routinely cultured to near confluency in DMEM media with 10% FCS added. The cells were trypsinized and plated in a 96-well plate at 5,000 cells per well per 100 μl media supplemented with 2% FCS and antibiotics. MDA-MB-231 cells were routinely cultured to near confluency in advanced DMEM media supplemented with 10% FCS. The cells were allowed to adhere to the plate for at least 12 hours. Then, whole media and various concentrations of peptide, were added to the wells. The cells were cultured for 48 hours at 37 ° C. in a 5% CO2 atmosphere. Cell proliferation was determined using a bromo-deoxyuridine (BrdU) incorporation method as described by the manufacturer. Inhibition of cell proliferation, was assessed by BrdU incorporation.
(§2) The ability of representative peptides of this invention for their ability to inhibit various tumor cells line proliferation are listed below in Table 2.

MDA-MB-231 cells = assay: Proliferation assay of tumor cells (BrdU incorporation), MDA-MB-231; conditions: MDA-MB-231 proliferation, 48 hours, read-out: Inhibitory Activity (IC50 uM) MDA-MB-231
Protocol: as §1, §2

| Structure (SMILES) | IC50 (HUVECs) [µM] | IC50 [1] [µM] | IC50 (MDA-MB-231 cells) [µM] |
| --- | --- | --- | --- |
| CC[C@H](C)[C@H](NC(=O)[C@H](CCCNC(=N)N)NC(=O)[C@@H](NC(=O)[C@H](CCCNC(=N)N)NC(=O)[C@H](CCC(N)=O)NC(=O)[C@H](CCCNC(=N)N)NC(=O)[C@H](Cc1c[nH]cn1)NC(=O)[C@H](Cc1c[nH]cn1)NC(=O)[C@H](CCCNC(=N)N)NC(=O)[C@H](CCCNC(=N)N)NC(C)=O)C(C)C)C(=O)N[C@H](C(=O)N[C@@H](Cc1ccccc1)C(=O)NCCCC[C@H](NC(=O)[C@H](Cc1ccccc1)NC(=O)[C@@H](NC(=O)[C@@H](NC(=O)[C@H](CCCNC(=N)N)NC(=O)[C@@H](NC(=O)[C@H](CCCNC(=N)N)NC(=O)[C@H](CCC(N)=O)NC(=O)[C@H](CCCNC(=N)N)NC(=O)[C@H](Cc1c[nH]cn1)NC(=O)[C@H](Cc1c[nH]cn1)NC(=O)[C@H](CCCNC(=N)N)NC(=O)[C@H](CCCNC(=N)N)NC(C)=O)C(C)C)[C@@H](C)CC)[C@@H](C)CC)C(N)=O)[C@@H](C)CC [Peptide 240] (I: Ac-RRHHRQRVRIIFK-NH2 / II: Ac-RRHHRQRVRIIF; amide I:13-II:C) | < 10 | < 10 | < 10 |
| CC[C@H](C)[C@H](NC(=O)[C@H](C)NC(=O)[C@@H](NC(=O)[C@H](CCCNC(=N)N)NC(=O)[C@H](CCC(N)=O)NC(=O)[C@H](CCCNC(=N)N)NC(=O)[C@H](C)NC(=O)[C@H](Cc1c[nH]cn1)NC(=O)[C@H](CCCNC(=N)N)NC(=O)[C@H](C)NC(C)=O)C(C)C)C(=O)N[C@H](C(=O)N[C@@H](Cc1ccccc1)C(=O)NCCCC[C@H](NC(=O)[C@H](Cc1ccccc1)NC(=O)[C@@H](NC(=O)[C@@H](NC(=O)[C@H](C)NC(=O)[C@@H](NC(=O)[C@H](CCCNC(=N)N)NC(=O)[C@H](CCC(N)=O)NC(=O)[C@H](CCCNC(=N)N)NC(=O)[C@H](C)NC(=O)[C@H](Cc1c[nH]cn1)NC(=O)[C@H](CCCNC(=N)N)NC(=O)[C@H](C)NC(C)=O)C(C)C)[C@@H](C)CC)[C@@H](C)CC)C(N)=O)[C@@H](C)CC [Peptide 214] (I: Ac-ARHARQRVAIIFK-NH2 / II: Ac-ARHARQRVAIIF; amide I:13-II:C) | > 30 | > 30 | > 30 |
| CC[C@H](C)[C@H](NC(=O)[C@H](CCCNC(=N)N)NC(=O)[C@@H](NC(=O)[C@H](CCCNC(=N)N)NC(=O)[C@H](CCC(N)=O)NC(=O)[C@H](CCCNC(=N)N)NC(=O)[C@H](CCCNC(=N)N)NC(=O)[C@H](CCCNC(=N)N)NC(=O)[C@H](CCCNC(=N)N)NC(=O)[C@@H](N)CCCNC(=N)N)C(C)C)C(=O)N[C@H](C(=O)N[C@@H](Cc1ccccc1)C(=O)NCCCC[C@H](NC(=O)[C@H](Cc1ccccc1)NC(=O)[C@@H](NC(=O)[C@@H](NC(=O)[C@H](CCCNC(=N)N)NC(=O)[C@@H](NC(=O)[C@H](CCCNC(=N)N)NC(=O)[C@H](CCC(N)=O)NC(=O)[C@H](CCCNC(=N)N)NC(=O)[C@H](CCCNC(=N)N)NC(=O)[C@H](CCCNC(=N)N)NC(=O)[C@H](CCCNC(=N)N)NC(=O)[C@@H](N)CCCNC(=N)N)C(C)C)[C@@H](C)CC)[C@@H](C)CC)C(N)=O)[C@@H](C)CC [Peptide 132] (I: H-RRRRRQRVRIIFK-NH2 / II: H-RRRRRQRVRIIF; amide I:13-II:C; N-terminus assumed) | < 10 | < 10 | < 10 |
| CC[C@H](C)[C@H](NC(=O)[C@H](CCCNC(=N)N)NC(=O)[C@@H](NC(=O)[C@H](Cc1c[nH]cn1)NC(=O)[C@H](CCC(N)=O)NC(=O)[C@H](CCCNC(=N)N)NC(=O)[C@H](Cc1c[nH]cn1)NC(=O)[C@H](CCCNC(=N)N)NC(=O)[C@H](CCCNC(=N)N)NC(=O)[C@H](CCCNC(=N)N)NC(C)=O)C(C)C)C(=O)N[C@H](C(=O)N[C@@H](Cc1ccccc1)C(=O)NCCCC[C@H](NC(=O)[C@H](Cc1ccccc1)NC(=O)[C@@H](NC(=O)[C@@H](NC(=O)[C@H](CCCNC(=N)N)NC(=O)[C@@H](NC(=O)[C@H](Cc1c[nH]cn1)NC(=O)[C@H](CCC(N)=O)NC(=O)[C@H](CCCNC(=N)N)NC(=O)[C@H](Cc1c[nH]cn1)NC(=O)[C@H](CCCNC(=N)N)NC(=O)[C@H](CCCNC(=N)N)NC(=O)[C@H](CCCNC(=N)N)NC(C)=O)C(C)C)[C@@H](C)CC)[C@@H](C)CC)C(N)=O)[C@@H](C)CC [Peptide 244] (I: Ac-RRRHRQHVRIIFK-NH2 / II: Ac-RRRHRQHVRIIF; amide I:13-II:C) | < 10 | < 10 | < 10 |
